From ChEMBL document CHEMBL1134166, “The identification of alpha-ketoamides as potent inhibitors of hepatitis C virus NS3-4A proteinase” (Bioorg Med Chem Lett, 2001)
*1 amine or outer side, *2 acyl side, *3 side chain or, on linkers, in order; H or OH if unused. Where a SMILES comes first, the peptide text is derived from it. [ ]: non-standard residue; d: D form. The star is where a group is joined. X1 = O=C(C(=O)[*:2])[C@H](CC(F)(F)F)N[*:1]; NH(1S-phenylpropyl) = CC[C@H](N*)c1ccccc1; NH(1R-phenylethyl) = C[C@@H](N*)c1ccccc1; NH(1S-phenylethyl) = C[C@H](N*)c1ccccc1; Phe(2-Me) = Cc1ccccc1C[C@H](N)C(=O)O; NleCONH2 = CCCC[C@H](N*)C(=O)C(N)=O; NH(4-OH-benzyl) = Oc1ccc(CN*)cc1; X3 = CCCC[C@@H](N*)C(=O)C(N)=O; X5 = CC[C@H](N*)c1ccc2ccccc2c1; X6 = C[C@H](N*)c1ccc2ccccc2c1; Suc = O=C(CCC(=O)[*:2])[*:1]; Tle = CC(C)(C)[C@H](N)C(=O)O; X4 = CC(C)[C@H](N*)c1ccccc1; NHBn = c1ccc(CN*)cc1; X2 = COc1cccc(CN*)c1

Assays:
[1] = molecular target: Hepatitis C virus serine protease, NS3/NS4A (Hepatitis C virus, UniProt D2K2A8+A3EZI9); assay: (§1) Inhibition of hepatitis c virus Non structural protein 3 protease/Non structural protein 4A protease; format: protein-complex assay, Hepacivirus hominis
Chain of Hepatitis C virus serine protease, NS3/NS4A (Hepatitis C virus, UniProt D2K2A8+A3EZI9) (D2K2A8 whole entry): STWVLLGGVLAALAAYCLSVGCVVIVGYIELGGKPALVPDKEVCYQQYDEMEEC
Chain of Hepatitis C virus serine protease, NS3/NS4A (Hepatitis C virus, UniProt D2K2A8+A3EZI9) (A3EZI9 whole entry): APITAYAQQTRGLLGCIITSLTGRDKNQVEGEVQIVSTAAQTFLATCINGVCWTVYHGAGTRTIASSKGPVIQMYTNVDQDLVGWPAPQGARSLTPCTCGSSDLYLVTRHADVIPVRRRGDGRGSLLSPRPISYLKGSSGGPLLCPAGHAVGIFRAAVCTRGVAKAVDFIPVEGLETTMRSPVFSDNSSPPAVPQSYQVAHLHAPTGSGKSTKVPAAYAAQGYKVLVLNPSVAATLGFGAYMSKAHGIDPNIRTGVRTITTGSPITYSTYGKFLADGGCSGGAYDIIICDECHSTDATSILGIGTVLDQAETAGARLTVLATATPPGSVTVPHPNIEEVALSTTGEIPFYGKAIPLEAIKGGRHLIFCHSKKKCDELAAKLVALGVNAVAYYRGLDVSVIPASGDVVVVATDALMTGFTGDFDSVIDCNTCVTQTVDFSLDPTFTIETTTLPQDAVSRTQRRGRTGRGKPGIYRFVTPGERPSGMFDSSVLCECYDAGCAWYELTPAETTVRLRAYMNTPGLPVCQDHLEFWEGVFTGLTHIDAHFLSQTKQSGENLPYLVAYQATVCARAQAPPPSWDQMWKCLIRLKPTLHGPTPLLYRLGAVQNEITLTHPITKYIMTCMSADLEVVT

Neutrophil elastase = molecular target: T1, Neutrophil elastase (Homo sapiens, UniProt P08246); assay: Compound was tested for inhibition of Elastase
T1 sequence (P08246 whole entry): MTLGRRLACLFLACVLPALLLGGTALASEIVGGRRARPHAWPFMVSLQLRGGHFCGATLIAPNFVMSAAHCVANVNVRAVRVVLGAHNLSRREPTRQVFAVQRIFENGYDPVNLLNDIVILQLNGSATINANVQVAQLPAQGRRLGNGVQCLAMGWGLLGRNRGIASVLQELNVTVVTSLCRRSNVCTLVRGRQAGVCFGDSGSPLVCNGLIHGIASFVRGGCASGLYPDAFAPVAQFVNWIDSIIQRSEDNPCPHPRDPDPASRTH

[2] = molecular target: Hepatitis C virus serine protease, NS3/NS4A (Hepatitis C virus, UniProt A3EZI9+D2K2A8); assay: as §1; format: protein-complex assay, Hepacivirus hominis
Chain of Hepatitis C virus serine protease, NS3/NS4A (Hepatitis C virus, UniProt A3EZI9+D2K2A8) (D2K2A8 whole entry): as the sequence (D2K2A8 whole entry) above
Chain of Hepatitis C virus serine protease, NS3/NS4A (Hepatitis C virus, UniProt A3EZI9+D2K2A8) (A3EZI9 whole entry): as the sequence (A3EZI9 whole entry) above

Trypsin = Trypsin (Homo sapiens, UniProt P07477+P07478+P35030); assay: Compound was tested for inhibition of trypsin; format: protein assay

Row | Structure (SMILES) | IC50 [1] [nM] | other results
1 | COc1cccc(CNC(=O)C(=O)[C@H](CC(F)(F)F)NC(=O)[C@H](CC(C)C)NC(=O)[C@@H](NC(=O)[C@H](Cc2ccccc2C)NC(=O)[C@H](CCC(=O)O)NC(=O)[C@H](CC(=O)O)NC(=O)CCC(=O)O)C(C)(C)C)c1 (Suc-DE[Phe(2-Me)][Tle]L[X1]-X2) | 6 | 
2 | CC[C@H](NC(=O)C(=O)[C@H](CC(F)(F)F)NC(=O)[C@H](CC(C)C)NC(=O)[C@@H](NC(=O)[C@H](Cc1ccccc1C)NC(=O)[C@H](CCC(=O)O)NC(=O)[C@H](CC(=O)O)NC(=O)CCC(=O)O)C(C)(C)C)c1ccc2ccccc2c1 (Suc-DE[Phe(2-Me)][Tle]L[X1]-X5) | 8 | 
3 | Cc1ccccc1C[C@H](NC(=O)[C@H](CCC(=O)O)NC(=O)[C@H](CC(=O)O)NC(=O)CCC(=O)O)C(=O)N[C@H](C(=O)N[C@@H](CC(C)C)C(=O)N[C@@H](CC(F)(F)F)C(=O)C(=O)N[C@@H](C)c1ccccc1)C(C)(C)C (Suc-DE[Phe(2-Me)][Tle]L[X1]-{NH(1S-phenylethyl)}) | 4 | 
4 | Cc1ccccc1C[C@H](NC(=O)[C@H](CCC(=O)O)NC(=O)[C@H](CC(=O)O)NC(=O)CCC(=O)O)C(=O)N[C@H](C(=O)N[C@@H](CC(C)C)C(=O)N[C@@H](CC(F)(F)F)C(=O)C(=O)NCc1ccc(O)cc1)C(C)(C)C (Suc-DE[Phe(2-Me)][Tle]L[X1]-{NH(4-OH-benzyl)}) | 4 | 
5 | Cc1ccccc1C[C@H](NC(=O)[C@H](CCC(=O)O)NC(=O)[C@H](CC(=O)O)NC(=O)CCC(=O)O)C(=O)N[C@H](C(=O)N[C@@H](CC(C)C)C(=O)N[C@@H](CC(F)(F)F)C(=O)C(=O)N[C@H](C)c1ccccc1)C(C)(C)C (Suc-DE[Phe(2-Me)][Tle]L[X1]-{NH(1R-phenylethyl)}) | 1100 | 
6 | CC[C@H](NC(=O)C(=O)[C@H](CC(F)(F)F)NC(=O)[C@H](CC(C)C)NC(=O)[C@@H](NC(=O)[C@H](Cc1ccccc1C)NC(=O)[C@H](CCC(=O)O)NC(=O)[C@H](CC(=O)O)NC(=O)CCC(=O)O)C(C)(C)C)c1ccccc1 (Suc-DE[Phe(2-Me)][Tle]L[X1]-{NH(1S-phenylpropyl)}) | 7 | 
7 | CCCC[C@@H](NC(=O)[C@H](CC(C)C)NC(=O)[C@@H](NC(=O)[C@H](Cc1ccccc1C)NC(=O)[C@H](CCC(=O)O)NC(=O)[C@H](CC(=O)O)NC(=O)CCC(=O)O)C(C)(C)C)C(=O)C(N)=O (Suc-DE[Phe(2-Me)][Tle]L-X3) |  | IC50 (Neutrophil elastase): 12000 nM
8 | Cc1ccccc1C[C@H](NC(=O)[C@H](CCC(=O)O)NC(=O)[C@H](CC(=O)O)NC(=O)CCC(=O)O)C(=O)N[C@H](C(=O)N[C@@H](CC(C)C)C(=O)N[C@@H](CC(F)(F)F)C(=O)C(=O)N[C@@H](C)c1ccc2ccccc2c1)C(C)(C)C (Suc-DE[Phe(2-Me)][Tle]L[X1]-X6) | 4 | 
9 | CCCC[C@H](NC(=O)[C@H](CC(C)C)NC(=O)[C@@H](NC(=O)[C@H](Cc1ccccc1C)NC(=O)[C@H](CCC(=O)O)NC(=O)[C@H](CC(=O)O)NC(=O)CCC(=O)O)C(C)(C)C)C(=O)C(N)=O (Suc-DE[Phe(2-Me)][Tle]L-NleCONH2) |  | IC50 [2]: 11 nM; IC50 (Trypsin): > 200000 nM
10 | Cc1ccccc1C[C@H](NC(=O)[C@H](CCC(=O)O)NC(=O)[C@H](CC(=O)O)NC(=O)CCC(=O)O)C(=O)N[C@H](C(=O)N[C@@H](CC(C)C)C(=O)N[C@@H](CC(F)(F)F)C(=O)C(=O)N[C@H](c1ccccc1)C(C)C)C(C)(C)C (Suc-DE[Phe(2-Me)][Tle]L[X1]-X4) | 7 | 
11 | Cc1ccccc1C[C@H](NC(=O)[C@H](CCC(=O)O)NC(=O)[C@H](CC(=O)O)NC(=O)CCC(=O)O)C(=O)N[C@H](C(=O)N[C@@H](CC(C)C)C(=O)N[C@@H](CC(F)(F)F)C(=O)C(=O)NCc1ccccc1)C(C)(C)C (Suc-DE[Phe(2-Me)][Tle]L[X1]-NHBn) | 4 | 
